# Results taken from PubChem BioAssay (NCI).
#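 The compound was tested at five concentrations on cells cultured in 96-well plates, with a 48-hour exposure period. TGI: total growth inhibition.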
# What was measured:
# Experiment in all cases: NCI anticancer screen, dose series, 48 h
# MALME-3M melanoma = test system: MALME-3M melanoma
# HOP-18 NSCLC = test system: HOP-18 NSCLC
# M14 melanoma = test system: M14 melanoma
# OVCAR-4 ovarian = test system: OVCAR-4 ovarian
# SN12C renal = test system: SN12C renal
# U251 CNS = test system: U251 CNS
# KM20L2 colon = test system: KM20L2 colon
# HCC-2998 colon = test system: HCC-2998 colon
# UACC-62 melanoma = test system: UACC-62 melanoma
# DLD-1 colon = test system: DLD-1 colon
# SW-620 colon = test system: SW-620 colon
# CCRF-CEM leukemia = test system: CCRF-CEM leukemia
# NCI-H23 lung = test system: NCI-H23 lung
# EKVX NSCLC = test system: EKVX NSCLC
# HOP-92 NSCLC = test system: HOP-92 NSCLC
# SF-539 CNS = test system: SF-539 CNS
# HT29 colon = test system: HT29 colon
# K-562 leukemia = test system: K-562 leukemia
# SNB-19 CNS = test system: SNB-19 CNS
# HOP-62 NSCLC = test system: HOP-62 NSCLC
# DMS 114 small cell lung = test system: DMS 114 small cell lung
# DMS 273 small cell lung = test system: DMS 273 small cell lung
# 786-0 renal = test system: 786-0 renal
# A498 renal = test system: A498 renal
# LXFL 529 NSCLC = test system: LXFL 529 NSCLC
# KM12 colon = test system: KM12 colon
# SF-268 CNS = test system: SF-268 CNS
# SNB-75 CNS = test system: SNB-75 CNS
# LOX IMVI melanoma = test system: LOX IMVI melanoma
# ACHN renal = test system: ACHN renal
# TK-10 renal = test system: TK-10 renal
# SR leukemia = test system: SR leukemia
# HCT-15 colon = test system: HCT-15 colon
# CAKI-1 renal = test system: CAKI-1 renal
# IGROV1 ovarian = test system: IGROV1 ovarian
# SNB-78 CNS = test system: SNB-78 CNS
# NCI-H460 lung = test system: NCI-H460 lung
# COLO 205 colon = test system: COLO 205 colon
# M19-MEL melanoma = test system: M19-MEL melanoma
# UACC-257 melanoma = test system: UACC-257 melanoma
# SK-MEL-5 melanoma = test system: SK-MEL-5 melanoma
# RPMI-8226 leukemia = test system: RPMI-8226 leukemia
# SK-MEL-2 melanoma = test system: SK-MEL-2 melanoma
# UO-31 renal = test system: UO-31 renal
# SF-295 CNS = test system: SF-295 CNS
# A549 NSCLC = test system: A549 NSCLC
# OVCAR-3 ovarian = test system: OVCAR-3 ovarian
# SK-OV-3 ovarian = test system: SK-OV-3 ovarian
# OVCAR-5 ovarian = test system: OVCAR-5 ovarian
# OVCAR-8 ovarian = test system: OVCAR-8 ovarian
# XF 498 CNS = test system: XF 498 CNS
# SK-MEL-28 melanoma = test system: SK-MEL-28 melanoma
# HCT-116 colon = test system: HCT-116 colon
# HL-60(TB) leukemia = test system: HL-60(TB) leukemia
# NCI-H226 lung = test system: NCI-H226 lung
# NCI-H522 lung = test system: NCI-H522 lung
# MOLT-4 leukemia = test system: MOLT-4 leukemia
# RXF 393 renal = test system: RXF 393 renal
# RXF-631 renal = test system: RXF-631 renal
structure (smiles),measurement,setting,value
CCCCNC(=O)CCN(C(=O)O)S(=O)(=O)c1ccc(NC(=O)c2ccccc2)cc1,TGI,MALME-3M melanoma,> 100 µM
same,TGI,HOP-18 NSCLC,> 100 µM
same,TGI,M14 melanoma,> 100 µM
same,TGI,OVCAR-4 ovarian,> 100 µM
same,TGI,SN12C renal,> 100 µM
same,TGI,U251 CNS,> 100 µM
same,TGI,KM20L2 colon,> 100 µM
same,TGI,HCC-2998 colon,> 100 µM
same,TGI,UACC-62 melanoma,> 100 µM
same,TGI,DLD-1 colon,> 100 µM
same,TGI,SW-620 colon,29.2 µM
same,TGI,CCRF-CEM leukemia,> 100 µM
same,TGI,NCI-H23 lung,> 100 µM
same,TGI,EKVX NSCLC,> 100 µM
same,TGI,HOP-92 NSCLC,> 100 µM
same,TGI,SF-539 CNS,> 100 µM
same,TGI,HT29 colon,49.8 µM
same,TGI,K-562 leukemia,> 100 µM
same,TGI,SNB-19 CNS,> 100 µM
same,TGI,HOP-62 NSCLC,> 100 µM
same,TGI,DMS 114 small cell lung,> 100 µM
same,TGI,DMS 273 small cell lung,86.5 µM
same,TGI,786-0 renal,29.7 µM
same,TGI,A498 renal,> 100 µM
same,TGI,LXFL 529 NSCLC,> 100 µM
same,TGI,KM12 colon,> 100 µM
same,TGI,SF-268 CNS,> 100 µM
same,TGI,SNB-75 CNS,> 100 µM
same,TGI,LOX IMVI melanoma,34.6 µM
same,TGI,ACHN renal,> 100 µM
same,TGI,TK-10 renal,> 100 µM
same,TGI,SR leukemia,> 100 µM
same,TGI,HCT-15 colon,> 100 µM
same,TGI,CAKI-1 renal,> 100 µM
same,TGI,IGROV1 ovarian,> 100 µM
same,TGI,SNB-78 CNS,> 100 µM
same,TGI,NCI-H460 lung,> 100 µM
same,TGI,COLO 205 colon,> 100 µM
same,TGI,M19-MEL melanoma,> 100 µM
same,TGI,UACC-257 melanoma,> 100 µM
same,TGI,SK-MEL-5 melanoma,> 100 µM
same,TGI,RPMI-8226 leukemia,> 100 µM
same,TGI,SK-MEL-2 melanoma,> 100 µM
same,TGI,UO-31 renal,> 100 µM
same,TGI,SF-295 CNS,> 100 µM
same,TGI,A549 NSCLC,> 100 µM
same,TGI,OVCAR-3 ovarian,> 100 µM
same,TGI,SK-OV-3 ovarian,> 100 µM
same,TGI,OVCAR-5 ovarian,> 100 µM
same,TGI,OVCAR-8 ovarian,> 100 µM
same,TGI,XF 498 CNS,> 100 µM
same,TGI,SK-MEL-28 melanoma,> 100 µM
same,TGI,HCT-116 colon,> 100 µM
same,TGI,HL-60(TB) leukemia,> 100 µM
same,TGI,NCI-H226 lung,> 100 µM
same,TGI,NCI-H522 lung,> 100 µM
same,TGI,MOLT-4 leukemia,> 100 µM
COC(=O)c1ccccc1NC(=O)C(=O)CC(=O)CC(c1ccccc1)c1c(O)c2ccccc2oc1=O (centres undefined),TGI,MALME-3M melanoma,> 100 µM
same,TGI,M14 melanoma,> 100 µM
same,TGI,OVCAR-4 ovarian,> 100 µM
same,TGI,SN12C renal,> 100 µM
same,TGI,KM20L2 colon,> 100 µM
same,TGI,HCC-2998 colon,> 100 µM
same,TGI,UACC-62 melanoma,> 100 µM
same,TGI,DLD-1 colon,> 100 µM
same,TGI,SW-620 colon,> 100 µM
same,TGI,CCRF-CEM leukemia,> 100 µM
same,TGI,NCI-H23 lung,> 100 µM
same,TGI,EKVX NSCLC,> 100 µM
same,TGI,RXF 393 renal,> 100 µM
same,TGI,SF-539 CNS,> 100 µM
same,TGI,HT29 colon,> 100 µM
same,TGI,SNB-19 CNS,> 100 µM
same,TGI,HOP-62 NSCLC,> 100 µM
same,TGI,DMS 114 small cell lung,> 100 µM
same,TGI,786-0 renal,> 100 µM
same,TGI,A498 renal,> 100 µM
same,TGI,KM12 colon,> 100 µM
same,TGI,SF-268 CNS,> 100 µM
same,TGI,ACHN renal,> 100 µM
same,TGI,TK-10 renal,> 100 µM
same,TGI,SR leukemia,> 100 µM
same,TGI,CAKI-1 renal,> 100 µM
same,TGI,IGROV1 ovarian,> 100 µM
same,TGI,NCI-H460 lung,> 100 µM
same,TGI,COLO 205 colon,> 100 µM
same,TGI,M19-MEL melanoma,> 100 µM
same,TGI,UACC-257 melanoma,> 100 µM
same,TGI,SK-MEL-5 melanoma,> 100 µM
same,TGI,RPMI-8226 leukemia,> 100 µM
same,TGI,SK-MEL-2 melanoma,> 100 µM
same,TGI,UO-31 renal,> 100 µM
same,TGI,SF-295 CNS,> 100 µM
same,TGI,A549 NSCLC,> 100 µM
same,TGI,OVCAR-3 ovarian,> 100 µM
same,TGI,SK-OV-3 ovarian,> 100 µM
same,TGI,OVCAR-5 ovarian,> 100 µM
same,TGI,OVCAR-8 ovarian,> 100 µM
same,TGI,SK-MEL-28 melanoma,> 100 µM
same,TGI,HCT-116 colon,> 100 µM
same,TGI,HL-60(TB) leukemia,> 100 µM
same,TGI,RXF-631 renal,> 100 µM
same,TGI,NCI-H522 lung,> 100 µM
same,TGI,MOLT-4 leukemia,> 100 µM
Cc1c2n(c3ccccc13)CC1CON(C)C21 (centres undefined),TGI,MALME-3M melanoma,> 100 µM
same,TGI,M14 melanoma,> 100 µM
same,TGI,OVCAR-4 ovarian,> 100 µM
same,TGI,HCC-2998 colon,> 100 µM
same,TGI,UACC-62 melanoma,> 100 µM
same,TGI,DLD-1 colon,> 100 µM
same,TGI,CCRF-CEM leukemia,> 100 µM
same,TGI,NCI-H23 lung,> 100 µM
same,TGI,HOP-92 NSCLC,> 100 µM
same,TGI,SF-539 CNS,> 100 µM
same,TGI,K-562 leukemia,> 100 µM
same,TGI,HOP-62 NSCLC,> 100 µM
same,TGI,DMS 114 small cell lung,> 100 µM
same,TGI,DMS 273 small cell lung,> 100 µM
same,TGI,786-0 renal,> 100 µM
same,TGI,LXFL 529 NSCLC,> 100 µM
same,TGI,SF-268 CNS,> 100 µM
same,TGI,SNB-75 CNS,> 100 µM
same,TGI,SR leukemia,> 100 µM
same,TGI,CAKI-1 renal,> 100 µM
same,TGI,IGROV1 ovarian,> 100 µM
same,TGI,SNB-78 CNS,> 100 µM
same,TGI,COLO 205 colon,> 100 µM
same,TGI,M19-MEL melanoma,> 100 µM
same,TGI,RPMI-8226 leukemia,> 100 µM
same,TGI,SK-MEL-2 melanoma,> 100 µM
same,TGI,UO-31 renal,> 100 µM
same,TGI,SK-OV-3 ovarian,> 100 µM
same,TGI,SK-MEL-28 melanoma,> 100 µM
same,TGI,HCT-116 colon,> 100 µM
same,TGI,HL-60(TB) leukemia,> 100 µM
same,TGI,RXF-631 renal,> 100 µM
same,TGI,NCI-H226 lung,> 100 µM
same,TGI,NCI-H522 lung,> 100 µM
same,TGI,MOLT-4 leukemia,> 100 µM
